US20240408169A1 (priority 2023, published 2024)
Like-named read-outs stand apart in the source and are kept apart here. *1 amine or outer side, *2 acyl side, *3 side chain or, on linkers, in order; H or OH if unused. Where a SMILES comes first, the peptide text is derived from it. Bridges are numbered along the chain shown (N, C = ends). [ ]: non-standard residue; d: D form. The star is where a group is joined. NMePhe(2-(4-MorPh),5-Cl) = CN[C@@H](Cc1cc(Cl)ccc1-c1ccc(N2CCOCC2)cc1)C(=O)O; X138 = CN([C@@H](Cc1cc(Cl)ccc1-c1ccc(S(=O)(=O)N2CCCC2)cc1)C(=O)[*:2])[*:1]; X153 = CN([C@@H](Cc1cc(F)ccc1-c1cnn(C2CCOCC2)c1)C(=O)[*:2])[*:1]; X193 = CN([C@@H](Cc1cc(Cl)ccc1-c1cnc2nonc2c1)C(=O)[*:2])[*:1]; NMehhhLys(Me) = CN([C@@H](CCCCCCCN(C)[*:3])C(=O)[*:2])[*:1]; X131 = CN([C@@H](Cc1cc(F)cnc1-c1cnn(C)c1)C(=O)[*:2])[*:1]; X44 = Cc1nnc(-c2ccc(Cl)cc2C[C@@H](C(=O)[*:2])N(C)[*:1])o1; NMe(hhhLys) = CN([C@@H](CCCCCCCN[*:3])C(=O)[*:2])[*:1]; X152 = CN([C@@H](Cc1cc(Cl)ccc1OC1CC1)C(=O)[*:2])[*:1]; Cyclobutanecarbonyl(1-CF3) = O=C(C1(C(F)(F)F)CCC1)*; cBuCO(3,3-F2-1-CF3) = O=C(C1(C(F)(F)F)CC(F)(F)C1)*; Pro(trans-4-F) = O=C(O)[C@@H]1C[C@@H](F)CN1; Gly(cPr) = N[C@H](C(=O)O)C1CC1

Legend:
[1] = system: NCI-H1048 cells; assay: MTT proliferation assay, NCI-H1048; format: cell-based; conditions: 5 days compound exposure, 1:3 serial dilution starting at 10 μM;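 also: Dose-response in 96-well plates over 8 or 10 concentration points, with exposure spanning 3-4 cell doublings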
[2] = biological target: T1, CyclinB1/CDK1 (Homo sapiens, UniProt P14635); assay: Fluorescence Polarization (FP) competitive binding assay, Cyclin B1/Cdk1;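 also: fluorescence polarization read after equilibration at room temperature, with IC50 taken from serially diluted dose-response curves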
T1 construct: purchased Eurofins, discovery 14-450

[3] = system: OVCAR3 cells; assay: MTT proliferation assay, OVCAR3; format: cell-based; conditions: 5 days compound exposure, 1:3 serial dilution starting at 10 μM;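 also: compound given as an 8- or 10-point series, one day after plating, with exposure covering roughly 3-4 cell doublings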
[4] = biological target: T2, CyclinE1/CDK2 (Homo sapiens, UniProt P24864); assay: Fluorescence Polarization (FP) competitive binding assay, Cyclin E1/Cdk2;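 also: readings taken after two-hour equilibration at room temperature in HEPES buffer with NaCl, DTT, NP-40 and BSA, IC50 fitted from eight-concentration serial dilution series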
T2 construct: purchased Eurofins, discovery 14-475

[5] = biological target: T3, CyclinA2/CDK2 (Homo sapiens, UniProt P20248); assay: Fluorescence Polarization (FP) competitive binding assay, Cyclin A2/Cdk2;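 also: plates equilibrated two hours at room temperature before polarization reading, IC50 fitted from eight-concentration compound titration curves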
T3 construct: purchased CRELUX Protein Services

[6] = 10 nM Cyclin B1/Cdk1, 2 nM FAM probe; average of 2-3 independent experiments; read-out: Cyclin B FP IC50
[7] = 10 nM Cyclin E1/Cdk2, 2 nM FAM probe, average of 2-3 independent experiments, read-out: Cyclin E FP IC50
[8] = 8 nM Cyclin A2/Cdk2, 2 nM FAM probe, average of 2-3 independent experiments, read-out: Cyclin A FP IC50

| Compound | GI50 [1] [nM] | IC50 [2, 6] [nM] | GI50 [3] [nM] | IC50 [4, 7] [nM] | IC50 [5, 8] [nM] | IC50 ([2]; read-out: Cyclin B FP IC50; 10 nM Cyclin B1/Cdk1, 2 nM FAM probe; average of 2-3 independent experiments) [nM] | IC50 [4] [nM] | IC50 [5] [nM] |
| --- | --- | --- | --- | --- | --- | --- | --- | --- |
| CC(C)C[C@@H]1NC(=O)[C@@H](NC(=O)[C@@H](NC(=O)[C@@H]2C[C@@H](F)CN2C(=O)C2(C(F)(F)F)CC(F)(F)C2)C2CC2)CC=CCCCCN(C)C(=O)[C@H](Cc2cc(Cl)ccc2Cl)N(C)C1=O [Example 12] | 30 | 20 | 40 | 100 | 60 | – | – | – |
| CC(C)C[C@@H]1NC(=O)[C@@H](N(C)C(=O)[C@@H](NC(=O)[C@@H]2C[C@@H](F)CN2C(=O)C2(C(F)(F)F)CC(F)(F)C2)C2CC2)CCCCCCCN(C)C(=O)[C@H](Cc2cc(F)ccc2-c2cnn(C3CCOCC3)c2)N(C)C1=O [Example 93] ({cBuCO(3,3-F2-1-CF3)}-[Pro(trans-4-F)][Gly(cPr)][NMehhhLys(Me)]L[X153]; lactam 3-C) | 10 | 20 | 10 | 140 | 20 | – | – | – |
| CC(C)C[C@@H]1NC(=O)[C@@H](N(C)C(=O)[C@@H](NC(=O)[C@@H]2C[C@@H](F)CN2C(=O)C2(C(F)(F)F)CC(F)(F)C2)C2CC2)CCCCCCCN(C)C(=O)[C@H](Cc2cc(Cl)ccc2OC2CC2)N(C)C1=O [Example 314] ({cBuCO(3,3-F2-1-CF3)}-[Pro(trans-4-F)][Gly(cPr)][NMehhhLys(Me)]L[X152]; lactam 3-C) | 10 | 20 | 10 | 140 | 30 | – | – | – |
| CC(C)C[C@@H]1NC(=O)[C@@H](N(C)C(=O)[C@@H](NC(=O)[C@@H]2C[C@@H](F)CN2C(=O)C2(C(F)(F)F)CC(F)(F)C2)C2CC2)CCCCCCCNC(=O)[C@H](Cc2cc(Cl)ccc2-c2ccc(N3CCOCC3)cc2)N(C)C1=O [Example 333] ({cBuCO(3,3-F2-1-CF3)}-[Pro(trans-4-F)][Gly(cPr)][NMe(hhhLys)]L[NMePhe(2-(4-MorPh),5-Cl)]; lactam 3-C) | 10 | 20 | 10 | 1150 | 20 | – | – | – |
| CC(C)C[C@@H]1NC(=O)[C@@H](N(C)C(=O)[C@@H](NC(=O)[C@@H]2C[C@@H](F)CN2C(=O)C2(C(F)(F)F)CC(F)(F)C2)C2CC2)CCCCCCCN(C)C(=O)[C@H](Cc2cc(Cl)ccc2-c2cnc3nonc3c2)N(C)C1=O [Example 171] ({cBuCO(3,3-F2-1-CF3)}-[Pro(trans-4-F)][Gly(cPr)][NMehhhLys(Me)]L[X193]; lactam 3-C) | 150 | 20 | 210 | 4210 | 80 | – | – | – |
| CC(C)C[C@@H]1NC(=O)[C@@H](N(C)C(=O)[C@@H](NC(=O)[C@@H]2C[C@@H](F)CN2C(=O)C2(C(F)(F)F)CC(F)(F)C2)C2CC2)CCCCCCCN(C)C(=O)[C@H](Cc2cc(Cl)ccc2-c2ccc(S(=O)(=O)N3CCCC3)cc2)N(C)C1=O [Example 266] ({cBuCO(3,3-F2-1-CF3)}-[Pro(trans-4-F)][Gly(cPr)][NMehhhLys(Me)]L[X138]; lactam 3-C) | 30 | 20 | 50 | 2220 | 20 | – | – | – |
| CC(C)C[C@@H]1NC(=O)[C@@H](N(C)C(=O)[C@@H](NC(=O)[C@@H]2C[C@@H](F)CN2C(=O)C2(C(F)(F)F)CCC2)C2CC2)CCCCCCCN(C)C(=O)[C@H](Cc2cc(F)cnc2-c2cnn(C)c2)N(C)C1=O [Example 245] ({Cyclobutanecarbonyl(1-CF3)}-[Pro(trans-4-F)][Gly(cPr)][NMehhhLys(Me)]L[X131]; lactam 3-C) | 80 | – | 20 | – | – | 20 | 220 | 40 |
| Cc1nnc(-c2ccc(Cl)cc2C[C@H]2C(=O)N(C)CCCCCCC[C@H](N(C)C(=O)[C@@H](NC(=O)[C@@H]3C[C@@H](F)CN3C(=O)C3(C(F)(F)F)CCC3)C3CC3)C(=O)N[C@@H](CC(C)C)C(=O)N2C)o1 [Example 163] ({Cyclobutanecarbonyl(1-CF3)}-[Pro(trans-4-F)][Gly(cPr)][NMehhhLys(Me)]L[X44]; lactam 3-C) | 10 | 20 | 10 | 100 | 20 | – | – | – |
| CC(C)C[C@@H]1NC(=O)[C@@H](N(C)C(=O)[C@@H](NC(=O)[C@@H]2C[C@@H](F)CN2C(=O)C2(C(F)(F)F)CC(F)(F)C2)C2CC2)CC=CCCCCN(C)C(=O)[C@H](Cc2cc(F)ccc2-c2cnn(C3CC3)c2)N(C)C1=O [Example 86] | 20 | 20 | 20 | 250 | 60 | – | – | – |
